Reference: article PMC9388736, “Unexpected kinetically controlled organoselenium-based isomaleimide: X-ray structure, hirshfeld surface analysis, 3D energy framework approach, and density functional theory calculation” (Frontiers in Chemistry, 2022)

Legend:
in vitro = type: cell-based, Murine; conditions: mouse
Method: (§1) The antiproliferative activities of OSe compounds 2, 3, and 4 were assessed against two oligodendrocyte cell lines, namely, 158 N and 158 JP, by the M.T.T. assay using 7-ketocholesterol as reference control (Supporting info, Supplementary Table S1) ([Vejux et al., 2005]; [Nury et al., 2014]). The redox profile of the compounds was evaluated using the H2-DCFDA assay, and their antiapoptotic potential was also assessed by flow cytometry ([Wilhelm et al., 2009]; [Karlsson et al., 2010]; [Shaaban et al., 2018]). Murine oligodendrocytes ([…] and 158JP) were seeded at 240,000 cells per 24-well plates and were grown using the Dulbecco's Modified Eagle Medium supplemented with penicillin antibiotics (1% v/v, streptomycin) and fetal bovine serum (5% v/v) and kept at 37 °C in atmosphere containing 5% CO2. The concentration of 7kc and vitamin E, and the time of treatment were chosen based on data obtained on 7kc treated […] cells. Organoselenium compounds were prepared in DMSO and then diluted with DMEM up to 1 mM. The MTT assay was carried out on […] and 158JP cells after one day of incubation with 7kc (50μM)/different concentrations (0, 1, 10, 20, 50 and 100 μM) of the organic selenides. In live cells, the MTT is reduced to formazan by the succinate dehydrogenase mitochondrial enzyme. The microplate reader Tecan Sunrise (Tecan, Lyon, France) was used for the reading of the plates at 570 nm. The IC50 values and the maximum concentrations without toxicity were estimated for each of the compounds from the respective dose-response curves.

158N cells [1] = experiment: H2-DCFDA assay of ROS levels by flow cytometry; type: cell-based, Murine; conditions: Mus musculus, ROS level, mean ± SD, * P < 0.05 vs DMSO; for activity at 50 µM: compound at 50 µM, read-out: H2-DCFDA assay (% of control), C3 (50 µM); for activity at 10 µM: compound at 10 µM, read-out: H2-DCFDA assay (% of control), C1 (10 µM); for activity at 20 µM: compound at 20 µM, read-out: H2-DCFDA assay (% of control), C2 (20 µM)
Method: The antiproliferative activities of OSe compounds 2, 3, and 4 were assessed against two oligodendrocyte cell lines, namely, 158 N and 158 JP, by the M.T.T. assay using 7-ketocholesterol as reference control (Supporting info, Supplementary Table S1) ([Vejux et al., 2005]; [Nury et al., 2014]). The redox profile of the compounds was evaluated using the H2-DCFDA assay, and their antiapoptotic potential was also assessed by flow cytometry ([Wilhelm et al., 2009]; [Karlsson et al., 2010]; [Shaaban et al., 2018]). ROS overproduction and O2^•− and were detected with H2-DCFDA assay. Cultured cells were treated with trypsin re-suspended in PBS (10^6 cells/mL) and kept in the dark for half hour at 37 °C with H2-DCFDA at 10 μM and cells were analyzed by flow cytometry. The green fluorescence of 2’,7’- dichlorofluorescein resulting from the oxidation of H2-DCFDA was analyzed by flow cytometry and collected through a 520/10-nm band pass filter. Flomax (Partec) or FlowJo (Tree Star Inc.) software were used for the data analysis.

158JP cells = experiment: in vitro; type: cell-based, Murine; conditions: for IC50: mouse, 1 day
Method: as §1

158N cells [2] = experiment: in vitro; type: cell-based, Murine; conditions: for IC50: mouse, 1 day
Method: as §1

158N cells [3] = experiment: Antiapoptotic effect: Sub-G1 peak by flow cytometry, PI staining, 7kc as apoptosis stimulator; type: cell-based, Murine; conditions: 158N cells stained with P.I., 7kc (50 μM) 24 hours, compound at 50, 10, 5 and 1 μM
Method: Furthermore, the antiapoptotic activities of compounds 2, 3, and 4 were also evaluated by flow cytometry in 158N cells stained with P.I. using 7Kc as apoptosis stimulator and the positive reference (Supporting info, Supplementary Figure S1). […] The N-maleanilic acid 3 amphiphilic characters favor its crossing through the cell membrane and, therefore, its better activity.
The analysis of the cell cycle can reveal a Sub-G1 peak, which is representative of apoptotic cells. Cell cycle analysis was detected on 158N cells stained with Propidium Iodide (PI). Flow cytometric analyses were measured on a Galaxy flow cytometer. Cells were prepared by re-suspension in cold ethanol (80%, −20 °C) for 2 hrs.Cells were then washed withphosphate buffer, and re-suspended in phosphate buffer (300 μL) containing PI (80 μg/mL) and RNase (200 μg/mL) and kept for 1 h at 37°C.PBS 2 mL was then added, and Fluorescence of propidium iodide was recorded using a 590 ± 10 nm band filter. The percentage of cells in different cell cycle phase was manually estimated.
Figure S1. Anti-apoptotic effect of the organoselenium derivative 3 on oligodendrocytes. The anti-apoptotic effect was measured by cytometry using propidium iodide. […]

Structure (SMILES) | IC50 at 1 day (in vitro; Cytotoxicity assay IC50, 158JP) [µM] | IC50 at 1 day (in vitro; Cytotoxicity assay IC50, 158N) [µM] | activity at 50 µM (158N cells [1]) [%] | IC50 (158JP cells) [µM] | IC50 (158N cells [2]) [µM] | activity at 10 µM (158N cells [1]) [%] | activity at 20 µM (158N cells [1]) [%] | melting point [°C] | cytotoxicity (in words) (158JP cells) | cytotoxicity (in words) (158N cells [2]) | formation of SubG1 peak (antiapoptotic activity, in words) (158N cells [3])
CC(C)CCC[C@@H](C)[C@H]1CC[C@H]2[C@@H]3C(=O)C=C4C[C@@H](O)CC[C@]4(C)[C@H]3CC[C@]12C [7kc, 7-ketocholesterol, reference compound] | 74 | 37 | 48 ± 2 |  |  |  |  |  |  |  | 
Nc1ccc([Se]Cc2ccc(Br)cc2)cc1 [Compound 2, 4-((4-bromobenzyl)selanyl)aniline] | ≥ 100 | ≥ 100 | 48 ± 2 | > 100 | > 100 | 36 ± 8 | 41 ± 2 | 156 to 158 |  |  | 
O=C(O)C=CC(=O)Nc1ccc([Se]Cc2ccc(Br)cc2)cc1 [Compound 3, 4-((4-((4-bromobenzyl)selanyl)phenyl)amino)-4-oxobut-2-enoic acid] | 50 | 29 | 31 ± 20 |  |  | 42 ± 10 | 36 ± 20 | 215 to 217 | moderate-low cytotoxicity | moderate-low cytotoxicity | lowered, in a concentration-dependent manner, the formation of SubG1 peak
O=C1C=CC(=Nc2ccc([Se]Cc3ccc(Br)cc3)cc2)O1 [Compound 4] | ≥ 100 | ≥ 100 | 11 ± 4 | > 100 | > 100 | 7 ± 4 | 8 ± 4 | 185 to 187 |  |  | 
